Measurements reported in the supplement of paper PMC10307832.

compound: N#CC1(c2ccc(NC(=O)c3cccnc3NCc3ccncc3)cc2)CCCC1 [Apatinib] + Nc1ncn([C@H]2C[C@H](O)[C@@H](CO)O2)c(=O)n1 [Decitabine] (partner 2 µM); assay: relative viability (nuclei count vs DMSO), 5 days (fraction); higher = more cells survive; settings: first compound 8 µM
How it was run: (§1)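 Nuclei were stained with Hoechst during a one-step fixation (final 0.05% Triton X-100, 1% formaldehyde, 1 ug/ml Hoechst) carried out 5 days after dosing, then counted on 4× images. The cells, lung cancer lines in 1536-well plates, had been dosed by pin tool the day after seeding with one drug alone or a fixed anchor-drug dose plus five library-drug doses (not always all listed) in √10 steps. Relative viability is the nuclei count in treated wells divided by that in vehicle wells, and each value is the median of duplicate plates.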

Q: For HCC-15, which relative viability is on record?
A: 0.606

Q: For HCC-44, which relative viability is on record?
A: 0.89

Q: How did the relative viability turn out when HCC-78 was run?
A: 0.913

Q: For HCC-366, which relative viability is on record?
A: 0.432

Q: With HCC-827 as the cell line, how does the relative viability read?
A: 0.327

Q: HOP-62 was tested. Which relative viability did it give?
A: 0.519

Q: Which relative viability does the source give for LC-2-ad here?
A: 0.698

Q: With NCI-H520 as the cell line, how does the relative viability read?
A: 0.486

Q: For NCI-H522, which relative viability is on record?
A: 0.672

Q: Which relative viability does the source give for NCI-H661 here?
A: 0.599

Q: With NCI-H1648 as the cell line, how does the relative viability read?
A: 0.508

Q: How did the relative viability turn out when NCI-H1650 was run?
A: 0.589

Q: NCI-H2009 was tested. Which relative viability did it give?
A: 0.581

Q: Which relative viability does the source give for NCI-H2023 here?
A: 0.472

Q: NCI-H2342 was tested. Which relative viability did it give?
A: 0.791

Q: SK-LU-1 was tested. Which relative viability did it give?
A: 0.675

Q: Which relative viability does the source give for SK-MES-1 here?
A: 0.903

Q: How did the relative viability turn out when SW 900 was run?
A: 0.652

Q: With SW 1573 as the cell line, how does the relative viability read?
A: 0.603

Q: UMC-11 was tested. Which relative viability did it give?
A: 0.629

compound: N#CC1(c2ccc(NC(=O)c3cccnc3NCc3ccncc3)cc2)CCCC1 [Apatinib] + NC(=O)Nc1cc(-c2cccc(F)c2)sc1C(=O)N[C@H]1CCCNC1 [AZD7762] (partner 0.2 µM); assay: as above; settings: first compound 0.08 µM
How it was run: as §1

Q: For 201T, which relative viability is on record?
A: 0.691

Q: With A-427 as the cell line, how does the relative viability read?
A: 0.71

Q: Which relative viability does the source give for BEN here?
A: 0.529

Q: With CAL-12T as the cell line, how does the relative viability read?
A: 0.618

Q: For ChaGo-K-1, which relative viability is on record?
A: 0.913

Q: EKVX was tested. Which relative viability did it give?
A: 0.641

Q: Which relative viability does the source give for EMC-BAC-2 here?
A: 1.1

Q: How did the relative viability turn out when EPLC-272H was run?
A: 0.334

Q: With H3255 as the cell line, how does the relative viability read?
A: 0.824

Q: For HARA, which relative viability is on record?
A: 0.344

Q: HCC-15 was tested. Which relative viability did it give?
A: 1.13

Q: How did the relative viability turn out when HCC-44 was run?
A: 1.03

Q: HCC-78 was tested. Which relative viability did it give?
A: 0.553

Q: HCC-366 was tested. Which relative viability did it give?
A: 0.283

Q: How did the relative viability turn out when HCC-827 was run?
A: 0.166

Q: HOP-62 was tested. Which relative viability did it give?
A: 0.676

Q: How did the relative viability turn out when LC-2-ad was run?
A: 0.86

Q: How did the relative viability turn out when NCI-H522 was run?
A: 0.884

Q: With NCI-H1648 as the cell line, how does the relative viability read?
A: 0.937

Q: How did the relative viability turn out when NCI-H1703 was run?
A: 0.147

Q: For NCI-H2342, which relative viability is on record?
A: 0.454

Q: SW 900 was tested. Which relative viability did it give?
A: 0.656

same assay, conditions: first compound 0.253 µM

Q: For 201T, which relative viability is on record?
A: 0.701

Q: A-427 was tested. Which relative viability did it give?
A: 0.761

Q: With ABC-1 as the cell line, how does the relative viability read?
A: 0.687

Q: For BEN, which relative viability is on record?
A: 0.67

Q: How did the relative viability turn out when CAL-12T was run?
A: 0.53

Q: For ChaGo-K-1, which relative viability is on record?
A: 0.853

Q: For EKVX, which relative viability is on record?
A: 0.572

Q: For EMC-BAC-2, which relative viability is on record?
A: 1.07

Q: How did the relative viability turn out when EPLC-272H was run?
A: 0.24

Q: For H3255, which relative viability is on record?
A: 0.882

Q: How did the relative viability turn out when HARA was run?
A: 0.38

Q: For HCC-15, which relative viability is on record?
A: 1.23

Q: HCC-44 was tested. Which relative viability did it give?
A: 1.01

Q: How did the relative viability turn out when HCC-78 was run?
A: 0.766

Q: For HCC-366, which relative viability is on record?
A: 0.457

Q: Which relative viability does the source give for HCC-827 here?
A: 0.213

Q: For HOP-62, which relative viability is on record?
A: 0.536

Q: Which relative viability does the source give for LC-2-ad here?
A: 0.892

Q: NCI-H522 was tested. Which relative viability did it give?
A: 1

Q: NCI-H1648 was tested. Which relative viability did it give?
A: 0.667

Q: Which relative viability does the source give for NCI-H1703 here?
A: 0.127

Q: NCI-H2342 was tested. Which relative viability did it give?
A: 0.464

Q: With SW 900 as the cell line, how does the relative viability read?
A: 0.587

same assay, conditions: first compound 0.8 µM

Q: Which relative viability does the source give for 201T here?
A: 0.565

Q: Which relative viability does the source give for A-427 here?
A: 0.665

Q: How did the relative viability turn out when ABC-1 was run?
A: 0.882

Q: BEN was tested. Which relative viability did it give?
A: 0.694

Q: With CAL-12T as the cell line, how does the relative viability read?
A: 0.603

Q: How did the relative viability turn out when ChaGo-K-1 was run?
A: 0.776

Q: For EKVX, which relative viability is on record?
A: 0.656

Q: With EMC-BAC-2 as the cell line, how does the relative viability read?
A: 1.06

Q: Which relative viability does the source give for EPLC-272H here?
A: 0.206

Q: H3255 was tested. Which relative viability did it give?
A: 0.851

Q: How did the relative viability turn out when HARA was run?
A: 0.184

Q: HCC-15 was tested. Which relative viability did it give?
A: 1.12

Q: With HCC-44 as the cell line, how does the relative viability read?
A: 0.983

Q: How did the relative viability turn out when HCC-78 was run?
A: 0.666

Q: Which relative viability does the source give for HCC-366 here?
A: 0.135

Q: How did the relative viability turn out when HCC-827 was run?
A: 0.165

Q: HOP-62 was tested. Which relative viability did it give?
A: 0.453

Q: LC-2-ad was tested. Which relative viability did it give?
A: 0.779

Q: Which relative viability does the source give for NCI-H522 here?
A: 0.867

Q: With NCI-H1648 as the cell line, how does the relative viability read?
A: 0.612

Q: For NCI-H1703, which relative viability is on record?
A: 0.123

Q: NCI-H2342 was tested. Which relative viability did it give?
A: 0.536

Q: How did the relative viability turn out when SW 900 was run?
A: 0.563

same assay, conditions: first compound 2.53 µM

Q: For 201T, which relative viability is on record?
A: 0.5

Q: Which relative viability does the source give for A-427 here?
A: 0.572

Q: How did the relative viability turn out when ABC-1 was run?
A: 0.767

Q: With BEN as the cell line, how does the relative viability read?
A: 0.449

Q: With CAL-12T as the cell line, how does the relative viability read?
A: 0.51

Q: How did the relative viability turn out when ChaGo-K-1 was run?
A: 0.711

Q: How did the relative viability turn out when EKVX was run?
A: 0.593

Q: How did the relative viability turn out when EMC-BAC-2 was run?
A: 0.91

Q: With EPLC-272H as the cell line, how does the relative viability read?
A: 0.174

Q: With H3255 as the cell line, how does the relative viability read?
A: 0.736

Q: How did the relative viability turn out when HCC-15 was run?
A: 1.15

Q: HCC-44 was tested. Which relative viability did it give?
A: 0.96

Q: How did the relative viability turn out when HCC-78 was run?
A: 0.539

Q: HCC-366 was tested. Which relative viability did it give?
A: 0.128

Q: How did the relative viability turn out when HCC-827 was run?
A: 0.141

Q: How did the relative viability turn out when HOP-62 was run?
A: 0.361

Q: For LC-2-ad, which relative viability is on record?
A: 0.825

Q: How did the relative viability turn out when NCI-H522 was run?
A: 0.623

Q: How did the relative viability turn out when NCI-H1648 was run?
A: 0.567

Q: With NCI-H1703 as the cell line, how does the relative viability read?
A: 0.0918

Q: NCI-H2342 was tested. Which relative viability did it give?
A: 0.385

Q: Which relative viability does the source give for SW 900 here?
A: 0.374

same assay, conditions: first compound 8 µM

Q: Which relative viability does the source give for 201T here?
A: 0.471

Q: Which relative viability does the source give for A-427 here?
A: 0.527

Q: With ABC-1 as the cell line, how does the relative viability read?
A: 0.727

Q: With BEN as the cell line, how does the relative viability read?
A: 0.621

Q: Which relative viability does the source give for CAL-12T here?
A: 0.468

Q: Which relative viability does the source give for ChaGo-K-1 here?
A: 0.617

Q: Which relative viability does the source give for EKVX here?
A: 0.574

Q: How did the relative viability turn out when EMC-BAC-2 was run?
A: 0.998

Q: For EPLC-272H, which relative viability is on record?
A: 0.17

Q: H3255 was tested. Which relative viability did it give?
A: 0.718

Q: Which relative viability does the source give for HARA here?
A: 0.128

Q: Which relative viability does the source give for HCC-15 here?
A: 1.05

Q: HCC-44 was tested. Which relative viability did it give?
A: 0.947

Q: Which relative viability does the source give for HCC-78 here?
A: 0.638

Q: With HCC-366 as the cell line, how does the relative viability read?
A: 0.0774

Q: For HCC-827, which relative viability is on record?
A: 0.158

Q: For HOP-62, which relative viability is on record?
A: 0.348

Q: LC-2-ad was tested. Which relative viability did it give?
A: 0.799

Q: NCI-H522 was tested. Which relative viability did it give?
A: 0.794

Q: Which relative viability does the source give for NCI-H1648 here?
A: 0.601

Q: For NCI-H1703, which relative viability is on record?
A: 0.127

Q: For NCI-H2342, which relative viability is on record?
A: 0.353

Q: SW 900 was tested. Which relative viability did it give?
A: 0.401

compound: CN(C)C(=N)NC(=N)N [Metformin] + O=C(c1cc(Cc2n[nH]c(=O)c3ccccc23)ccc1F)N1CCN(C(=O)C2CC2)CC1 [Olaparib] (partner 8 µM); assay: as above; settings: first compound 10 µM
How it was run: as §1

Q: For A549, which relative viability is on record?
A: 0.281

Q: Which relative viability does the source give for A-427 here?
A: 0.645

Q: With BEN as the cell line, how does the relative viability read?
A: 1.11

Q: For CAL-12T, which relative viability is on record?
A: 0.612

Q: COR-L23 was tested. Which relative viability did it give?
A: 0.256

Q: With COR-L 105 as the cell line, how does the relative viability read?
A: 0.804

Q: Calu-6 was tested. Which relative viability did it give?
A: 0.459

Q: ChaGo-K-1 was tested. Which relative viability did it give?
A: 0.341

Q: How did the relative viability turn out when EBC-1 was run?
A: 0.68

Q: For EMC-BAC-2, which relative viability is on record?
A: 0.381

Q: EPLC-272H was tested. Which relative viability did it give?
A: 0.748

Q: Which relative viability does the source give for H3255 here?
A: 0.487

Q: For HARA, which relative viability is on record?
A: 0.989

Q: With HCC-15 as the cell line, how does the relative viability read?
A: 0.532

Q: Which relative viability does the source give for HCC-366 here?
A: 0.255

Q: How did the relative viability turn out when HCC-827 was run?
A: 0.487

Q: Which relative viability does the source give for HOP-62 here?
A: 0.189

Q: IA-LM was tested. Which relative viability did it give?
A: 0.864

Q: How did the relative viability turn out when NCI-H520 was run?
A: 0.276

Q: With NCI-H522 as the cell line, how does the relative viability read?
A: 0.721

Q: Which relative viability does the source give for NCI-H661 here?
A: 0.648

Q: NCI-H1299 was tested. Which relative viability did it give?
A: 0.867

Q: With NCI-H1650 as the cell line, how does the relative viability read?
A: 0.687

Q: Which relative viability does the source give for NCI-H1703 here?
A: 0.501

Q: For NCI-H2009, which relative viability is on record?
A: 0.612

Q: Which relative viability does the source give for NCI-H2023 here?
A: 0.332

Q: Which relative viability does the source give for NCI-H2228 here?
A: 0.399

Q: How did the relative viability turn out when SK-LU-1 was run?
A: 0.356

Q: For SK-MES-1, which relative viability is on record?
A: 0.305
